Test system: Heme Oxygenase 1 (HO1)
Assay: PD study, HMOX1 protein levels in mouse plasma and liver (ELISA)
Assay type: in vivo
Details: HMOX1 protein fold induction vs time-matched vehicle, 50 mpk oral
Procedure: 9-10 week old male C57BL/6 mice were dosed orally with 50 mg/kg of vehicle or compound formulated in 5% w/v tween 80 and 0.5% methyl cellulose. At indicated time points (3 and 6 hours or or 4 and 8 hours post-dosing as shown in the results below), whole blood was collected, animal was sacrificed and liver was collected. Blood samples were transferred to vials containing 4 μL of 10% w/v EDTA, centrifuged at 6000 rpm for 8 in below 10° C. to obtain plasma. Samples were frozen and later processed for HMOX1 protein levels as indicated below:
HMOX 1 Protein Levels: Mouse Liver
Preparation of Homogenization/Lysis Buffer
The homogenization buffer was prepared according Table A.
Immediately prior to use, add DTT (ThermoScientific #R0861) to a final concentration of 5 mM and 100×Halt Protease & Phosphatase Inhibitor Cocktail (ThermoScientific #78440) to a final concentration of 1×.
Preparation of Mouse Liver Samples
Liver samples were crushed by mortar and pestle under freezing conditions. Pulverized tissue was transferred into pre-chilled bead ruptor OMNI tubes (OMNI International, Cat #19-628). 1 mL of homogenization buffer (+DTT and HALT) was added to pulverized tissue and tubes were placed on ice. Samples were loaded and run through bead ruptor at speed 5.64 m/s, for two 20 sec cycles with 10 sec dwell between cycles and samples were immediately returned to ice. All material was transferred to a new chilled 2 mL Eppendorf tube. Samples were centrifuged for 5 minutes at 2,000 rpm at 4° C. Supernatant was transferred to a fresh chilled 1.7 mL Eppendorf tube. Samples were centrifuged for 5 minutes at 2,000 rpm at 4° C. The supernatant, consisting of cytosol and microsomes, was transferred to a fresh chilled 1.7 mL Eppendorf tube. Samples were stored at −80° C. Microsome samples were quantitated using Pierce 660 Assay (ThermoFisher Cat #22660) with pre-diluted BSA standards (ThermoFisher Cat #23208) ranging from 125-2000 μg/mL. Each sample was diluted to 10ng/ul for an ELISA input of 0.5ug in 50ul.
Preparation of Assay Reagents
All assay reagents were provided in the Heme Oxygenase 1 (HO1) Mouse SimpleStep ELISA Kit (Abcam #ab204524). Prior to use, all reagents were equilibrated to room temperature. 1×Wash Buffer PT was prepared by diluting 10×Wash Buffer PT 1:10 with deionized water. Antibody cocktail was prepared by diluting the 10×Capture Antibody and 10×Detector Antibody to 1×in Antibody Diluent 5BI. Mouse heme oxygenase 1 protein standard was reconstituted using 500ul homogenization buffer (Table A), mixed and held at room temperature for 10 minutes prior to dilution. An eight point standard curve was generated by diluting the Stock Standard 1:2 for standard curve ranging from 10,000-156.3 pg/mL.
Heme Oxygenase 1 (HO1) Mouse SimpleStep ELISA
50ul of all samples and standards were added to appropriate wells in duplicate. 50ul of 1×Antibody Cocktail was added to each well. The plate was sealed with provided seal and incubated at room temperature on a plate shaker at 400 rpm. After one hour incubation, the Antibody Cocktail was aspirated and the wells were washed three times with 350ul 1×Wash Buffer PT, aspirating completely between each step. After the last wash was aspirated dry, 100ul TMB Substrate was added to each well and the plate was incubated in the dark at room temperature for 10 minutes on a plate shaker at 400 rpm. After the 10 minute incubation, 100ul of Stop Solution was added to each well. Plate was shaken at 400 rpm for 1 minute to mix. Softmax Pro 7.0.3 was used to read OD at 450 nm as well as for analysis.
Heme Oxygenase 1 Protein Levels in Mouse Plasma
All assay reagents were provided in the Heme Oxygenase 1 (HO1) Mouse SimpleStep ELISA Kit (Abcam #ab204524). 1×Wash Buffer PT was prepared by diluting 10×Wash Buffer PT 1:10 with deionized water. Antibody cocktail was prepared by diluting the 10×Capture Antibody and 10×Detector Antibody to 1×in Antibody Diluent 5BI. […]

SMILES: Cn1c(Nc2nc3ccccc3o2)nc2cc(C(=O)NCCOCCO)ccc21 [Example 17, 2-(benzo[d]oxazol-2-ylamino)-N-(2-(2-hydroxyethoxy)ethyl)-1-methyl-1H-benzo[d]imidazole-5-carboxamide]
- Liver Protein (4 h) (mouse liver, 4 hours (Study 702)): 3.3x*
- Liver Protein (8 h) (mouse liver, 8 hours (Study 702)): 3.1x*
- Plasma Protein (4 h) (mouse plasma, 4 hours (Study 702)): 1.7x*
- Plasma Protein (8 h) (mouse plasma, 8 hours (Study 702)): 1.1x*

From patent US20240051952A1, “HMOX1 INDUCERS” (Mitobridge Inc., priority 2019, published 2024)
